Broadly, the EC50 is the concentration that produces a half-maximal response. Higher therefore signals lower potency in that assay.

This experiment relates to stable U20S reporter cells harboring Per2-dLuc. In words: Per2 assay for evaluating the potency of test compounds (circadian luciferase reporter). The following applies: amplitude of Per2-dLuc luminescence vs log concentration. Type of experiment: cell-based. How it is done:
Compounds were screened by using a high-throughput circadian assay system as previously described in Zhang, E. E. et al. Cell, 2009, 139, 199-210. In brief, stable U20S reporter cells harboring Per2-dLuc were plated at a density of 30,000 cells/well in Corning 96-well, solid white, flat bottom, TC-treated microplates (Corning®), and incubated for 48 hours at 37° C. in the presence of 5% CO2 in a medium of Dulbecco's Modified Eagle Medium (DMEM) supplemented with 10% fetal bovine serum (FBS) and penicillin (100 units/mL)-streptomycin (100 μg/mL). […] DMSO stocks are then serially diluted in DMSO, typically diluting 3-fold for each dilution step. Following the 48 h period, cell culture medium is removed from plated cells and cells are synchronized with 200 μL/well of complete cell culture medium (described above), supplemented with 5 μM forskolin (Tocris®) and 1 mM beetle luciferin (Promega®). Immediately following synchronization, 1 μL of compound dilution is added to each well. Plates are sealed, shaken briefly, and gene expression was monitored by measuring luminescence (Tecan® Infinite M200 or Tecan® Infinite M200 Pro) continuously for a minimum of 3 days at 35° C. Raw luminescence data (counts) are first analyzed using Multicycle™ software (Actimetrics, Inc.) to determine the amplitude (amp), period, and phase (phz) for each compound concentration. The period length for control wells (i.e. no compound, DMSO only) should be 26-30 h. Amp data are then plotted against the logarithm compound concentration (M) and analyzed by nonlinear regression analysis to determine the EC50.
(Reporter assays use an easily measured gene product as a stand-in for the process of interest.)
In the case of `CC1CCC(=O)N1CC(O)Cn1c2ccc(F)cc2c2cc(F)ccc21` (centres unmarked) [Compound 34, 1-(3-(3,6-difluoro-9H-carbazol-9-yl)-2-hydroxypropyl)-5-methylpyrrolidin-2-one], the EC50 turned out to be 286 nM. The molecule `C[C@H]1CN(C[C@H](O)Cn2c3ccccc3c3ccccc32)C(=O)N1` [Compound 137, (S)-1-((R)-3-(9H-carbaxol-9-yl)-2-hydroxypropyl)-4-methylimidazolidin-2-one] came in with an EC50 of 766 nM. The figure for `CC(O)(CN1CCCN(c2ccccc2)C1=O)Cn1c2ccc(F)cc2c2cc(F)ccc21` (centres unmarked) [Compound 79, 1-(3-(3,6-difluoro-9H-carbazol-9-yl)-2-hydroxy-2-methylpropyl)-3-phenyltetrahydropyrimidin-2(1H)-one] is 923 nM; for `O=C1C(F)CCCN1CC(O)Cn1c2ccc(F)cc2c2cc(F)ccc21` (centres unmarked) [Compound 11, 1-(3-(3,6-difluoro-9H-carbazol-9-yl)-2-hydroxypropyl)-3-fluoropiperidin-2-one] it is 120 nM. `O=C1[C@@H]2CC[C@@H](C2)N1C[C@H](O)Cn1c2ccc(F)cc2c2cc(F)ccc21` [Compound 104, (1S,4R)-2-((R)-3-(3,6-difluoro-9H-carbazol-9-yl)-2-hydroxypropyl)-2-azabicyclo[2.2.1]heptan-3-one] registered an EC50 of 115 nM. The molecule `CC(O)(CN1CCCC1=O)Cn1c2ccccc2c2ccccc21` (centres unmarked) [Compound 67, 1-(3-(9H-carbazol-9-yl)-2-hydroxy-2-methylpropyl)pyrrolidin-2-one] gave an EC50 of 225 nM. Then `O=C1Nc2ccccc2CN1CC(O)Cn1c2ccc(F)cc2c2cc(F)ccc21` (centres unmarked) [Compound 103, 3-(3-(3,6-difluoro-9H-carbazol-9-yl)-2-hydroxypropyl)-3,4-dihydroquinazolin-2(1H)-one], with 940 nM; and `C[C@@H]1CCC(=O)N(C[C@H](O)Cn2c3ccccc3c3ccccc32)C1` [Compound 131, (R)-1-((R)-3-(9H-carbazol-9-yl)-2-hydroxypropyl)-5-methylpiperidin-2-one], with 280 nM; and `C[C@@](O)(CN1CC[C@H](F)C1=O)Cn1c2ccccc2c2ccccc21` [Compound 124, (S)-1-((S)-3-(9H-carbazol-9-yl)-2-hydroxy-2-methylpropyl)-3-fluoropyrrolidin-2-one], with 309 nM. With `C[C@](O)(CN1CC[C@H](F)C1=O)Cn1c2ccccc2c2ccccc21` [Compound 128, (S)-1-((R)-3-(9H-carbazol-9-yl)-2-hydroxy-2-methylpropyl)-3-fluoropyrrolidin-2-one], the EC50 turned out to be 172 nM. Against the preceding molecule, the EC50 is about 1.8-fold lower.

In the case of `O=C1N(CC(O)Cn2c3ccccc3c3ccccc32)CCN1C1CC1` (centres unmarked) [Compound 97, 1-(3-(9H-carbazol-9-yl)-2-hydroxypropyl)-3-cyclopropylimidazolidin-2-one], the EC50 is 315 nM. This EC50 lies about 1.8-fold higher than the previous one.

On to `CC(O)(CN1CCCN(C2CCC2)C1=O)Cn1c2ccc(F)cc2c2cc(F)ccc21` (centres unmarked) [Compound 81, 1-cyclobutyl-3-(3-(3,6-difluoro-9H-carbazol-9-yl)-2-hydroxy-2-methylpropyl)tetrahydropyrimidin-2(1H)-one], for which the EC50 worked out at 816 nM. `O=C1C(c2ccccc2)CCN1CC(O)Cn1c2ccc(F)cc2c2cc(F)ccc21` (centres unmarked) [Compound 53, 1-(3-(3,6-difluoro-9H-carbazol-9-yl)-2-hydroxypropyl)-3-phenylpyrrolidin-2-one]: a half-maximal effect (EC50) was put at 1340 nM. `O=C1N(CC(O)Cn2c3ccccc3c3ccccc32)CCCN1C1CCC1` (centres unmarked) [Compound 100, 1-(3-(9H-carbazol-9-yl)-2-hydroxypropyl)-3-cyclobutyltetrahydropyrimidin-2(1H)-one] came in with an EC50 of 721 nM. `O=C1C(C2CCCCC2)CCCN1CC(O)Cn1c2ccc(F)cc2c2cc(F)ccc21` (centres unmarked) [Compound 20, 3-cyclohexyl-1-(3-(3,6-difluoro-9H-carbazol-9-yl)-2-hydroxypropyl)piperidin-2-one] showed an EC50 of 379 nM. The figure for `O=C1C(C2CCC2)CCCN1CC(O)Cn1c2ccc(F)cc2c2cc(F)ccc21` (centres unmarked) [Compound 51, 3-cyclobutyl-1-(3-(3,6-difluoro-9H-carbazol-9-yl)-2-hydroxypropyl)piperidin-2-one] is 265 nM; for `CC1(C)CCCN(CC(O)Cn2c3ccc(F)cc3c3cc(F)ccc32)C1=O` (centres unmarked) [Compound 16, 1-(3-(3,6-difluoro-9H-carbazol-9-yl)-2-hydroxypropyl)-3,3-dimethylpiperidin-2-one] it is 463 nM.

Molecule `C[C@@H]1CCC(=O)N(C[C@@H](O)Cn2c3ccccc3c3ccccc32)C1` [Compound 133, (R)-1-((S)-3-(9H-carbazol-9-yl)-2-hydroxypropyl)-5-methylpiperidin-2-one] gave an EC50 of 838 nM. Compared with the last molecule, the EC50 is about 1.8-fold higher.

Molecule `O=C1[C@@H](F)CCN1C[C@H](O)Cn1c2ccccc2c2ccccc21` [Compound 122, (S)-1-((R)-3-(9H-carbazol-9-yl)-2-hydroxypropyl)-3-fluoropyrrolidin-2-one] returned an EC50 of 263 nM. Molecule `CC1CC(=O)N(CC(O)Cn2c3ccc(F)cc3c3cc(F)ccc32)C1C` (centres unmarked) [Compound 47, 1-(3-(3,6-difluoro-9H-carbazol-9-yl)-2-hydroxypropyl)-4,5-dimethylpyrrolidin-2-one] had an EC50 of 299 nM. As to `O=C1N(CC(O)Cn2c3ccccc3c3ccccc32)CCCC1(F)F` (centres unmarked) [Compound 69, 1-(3-(9H-carbazol-9-yl)-2-hydroxypropyl)-3,3-difluoropiperidin-2-one], the EC50 was 137 nM.

`O=C1N(CC(O)Cn2c3ccccc3c3ccccc32)CCCN1C1CC1` (centres unmarked) [Compound 99, 1-(3-(9H-carbazol-9-yl)-2-hydroxypropyl)-3-cyclopropyltetrahydropyrimidin-2(1H)-one] came in with a half-maximal effective concentration (EC50) of 555 nM. As for `CC(O)(CN1CCCC(F)(F)C1=O)Cn1c2ccc(F)cc2c2cc(F)ccc21` (centres unmarked) [Compound 14, 1-(3-(3,6-difluoro-9H-carbazol-9-yl)-2-hydroxy-2-methylpropyl)-3,3-difluoropiperidin-2-one], the EC50 was determined as 541 nM.

On to `CCC1CCC(=O)N1CC(O)Cn1c2ccc(F)cc2c2cc(F)ccc21` (centres unmarked) [Compound 32, 1-(3-(3,6-difluoro-9H-carbazol-9-yl)-2-hydroxypropyl)-5-ethylpyrrolidin-2-one], for which the EC50 came to 539 nM. With `CCN1CCCN(CC(O)Cn2c3ccc(F)cc3c3cc(F)ccc32)C1=O` (centres unmarked) [Compound 86, 1-(3-(3,6-difluoro-9H-carbazol-9-yl)-2-hydroxypropyl)-3-ethyltetrahydropyrimidin-2(1H)-one], the EC50 came to 497 nM. Molecule `C[C@@H]1CCN(C[C@H](O)Cn2c3ccc(F)cc3c3cc(F)ccc32)C1=O` [Compound 116, (R)-1-((R)-3-(3,6-difluoro-9H-carbazol-9-yl)-2-hydroxypropyl)-3-methylpyrrolidin-2-one] registered an EC50 of 311 nM. This EC50 lies about 1.6-fold lower than the previous one. Then `O=C1N(CC(O)Cn2c3ccc(F)cc3c3cc(F)ccc32)CCN1C1CCCCC1` (centres unmarked) [Compound 88, 1-cyclohexyl-3-(3-(3,6-difluoro-9H-carbazol-9-yl)-2-hydroxypropyl)imidazolidin-2-one], with 310 nM; and `CC1CCN(CC(O)Cn2c3ccc(F)cc3c3cc(F)ccc32)C(=O)N1C` (centres unmarked) [Compound 101, 1-(3-(3,6-difluoro-9H-carbazol-9-yl)-2-hydroxypropyl)-3,4-dimethyltetrahydropyrimidin-2(1H)-one], with 417 nM; and `CC(C)C1CCN(CC(O)Cn2c3ccc(F)cc3c3cc(F)ccc32)C1=O` (centres unmarked) [Compound 22, 1-(3-(3,6-difluoro-9H-carbazol-9-yl)-2-hydroxypropyl)-3-isopropylpyrrolidin-2-one], with 261 nM. `O=C1C(c2ccccc2)CCCN1CC(O)Cn1c2ccc(F)cc2c2cc(F)ccc21` (centres unmarked) [Compound 19, 1-(3-(3,6-difluoro-9H-carbazol-9-yl)-2-hydroxypropyl)-3-phenylpiperidin-2-one] yielded an EC50 of 547 nM. The figure for `CC1CCC(=O)N1CC(C)(O)Cn1c2ccc(F)cc2c2cc(F)ccc21` (centres unmarked) [Compound 35, 1-(3-(3,6-difluoro-9H-carbazol-9-yl)-2-hydroxy-2-methylpropyl)-5-methylpyrrolidin-2-one] is 678 nM. The figure for `O=C1NCCN1CC(O)Cn1c2ccccc2c2ccccc21` (centres unmarked) [Compound 84, 1-(3-(9H-carbazol-9-yl)-2-hydroxypropyl)imidazolidin-2-one] is 325 nM; for `O=C1[C@@H]2CC[C@@H](C2)N1C[C@H](O)Cn1c2ccccc2c2ccccc21` [Compound 106, (1S,4R)-2-((R)-3-(9H-carbazol-9-yl)-2-hydroxypropyl)-2-azabicyclo[2.2.1]heptan-3-one] it is 220 nM; for `O=C1N(CC(O)Cn2c3ccc(F)cc3c3cc(F)ccc32)CCCN1C1CCCC1` (centres unmarked) [Compound 76, 1-cyclopentyl-3-(3-(3,6-difluoro-9H-carbazol-9-yl)-2-hydroxypropyl)tetrahydropyrimidin-2(1H)-one] it is 609 nM. In turn, `CC(C)C1CCCN(CC(C)(O)Cn2c3ccc(F)cc3c3cc(F)ccc32)C1=O` (centres unmarked) [Compound 26, 1-(3-(3,6-difluoro-9H-carbazol-9-yl)-2-hydroxy-2-methylpropyl)-3-isopropylpiperidin-2-one] returned an EC50 of 1050 nM. This EC50 is about 1.7-fold higher than that of the molecule before.

The values are drawn from patent US10214507B2, “Carbazole-containing amides, carbamates, and ureas as cryptochrome modulators” (Reset Therapeutics, Inc., priority 2014, dated 2019).
